Laboratory results published in patent publication US9969692B2, “Process for preparing quinoline derivatives” (Exelixis, Inc., priority 2011, dated 2018).

Experiment: Gravimetric vapor sorption (GVS) moisture adsorption desorption isotherm
Assay type: physicochemical
Conditions: 25° C. and 90% humidity
Description: A gravimetric vapor sorption (GVS) study was run using a standard procedure. Samples were run on a dynamic vapor sorption analyzer (Surface Measurement Systems) running DVSCFR software. Sample sizes were typically 10 mg. A moisture adsorption desorption isotherm was performed as outlined below. The standard isotherm experiment, performed at 25° C., is a two-cycle run, starting at 40% RH (relative humidity), increasing humidity to 90% RH, decreasing humidity to 0% RH, increasing humidity again to 90% RH, and finally decreasing humidity to 0% RH in 10% RH intervals.

COc1cc2c(Oc3ccc(NC(=O)C4(C(=O)Nc5ccc(F)cc5)CC4)cc3F)ccnc2cc1OCCCN1CCOCC1.O [crystalline Compound 1, N-[3-fluoro-4-({6-(methyloxy)-7-[(3-morpholin-4-ylpropyl)oxy]quinolin-4-yl}oxy)phenyl]-N′-(4-fluorophenyl)cyclopropane-1,1-dicarboxamide crystalline hydrate]
weight gain (GVS): 2.5%
